Results as given in patent US20150072395A1, “RECOMBINANT MICROORGANISMS AND METHODS OF USE THEREOF” (priority 2013, published 2015).

What was measured:
LZ-pMTL83155-hsv-tk = format: cell-based, Clostridium autoethanogenum
Description: The pMTL83155, pMTL83155-Hsv-tk and pMTL85155-PheS plasmids were introduced into C. autoethanogenum DSM23693 (a derivate of DSM10061) as described in WO2012053905. Outgrowth was performed in PETC broth and spread on PETC-agar media supplemented with 15 μg/ml thiamphenicol (Sigma) and 10 μg/ml trimethoprim (Sigma). […] Streaks of single colonies were made on PETC-agar media containing 15 μg/mlthiamphenicol.
(§1) The sensitivity of LZ-pMTL83155 and LZ-pMTL83155-hsv-tk to ganciclovir was tested by plating them on PETC agar media containing 20 nM ganciclovir only and PETC agar media containing 20 nM ganciclovir and 15 μg/ml thiamphenicol. […] The presence of Hvs-tk gene confers toxicity to ganciclovir.

LZ-pMTL83155 = assay: Sensitivity of C. autoethanogenum transformants to ganciclovir (plating on PETC agar), empty-vector strain; format: cell-based, Clostridium autoethanogenum
Description: The pMTL83155, pMTL83155-Hsv-tk and pMTL85155-PheS plasmids were introduced into C. autoethanogenum DSM23693 (a derivate of DSM10061) as described in WO2012053905. Outgrowth was performed in PETC broth and spread on PETC-agar media supplemented with 15 μg/ml thiamphenicol (Sigma) and 10 μg/ml trimethoprim (Sigma). Colonies were observed after 3 days of incubation at 37° C. in pressurized gas jars with 20 psi of a gas mix of 48% […] 2% H2, 20% CO2, 30% N2. Streaks of single colonies were made on PETC-agar media containing 15 μg/mlthiamphenicol.
as §1

[1] = test system: C. autoethanogenum DSM23693 harbouring pMTL85151; assay: Toxicity/sensitivity testing of DL-4-chlorophenylalanine, C. autoethanogenum with empty vector; format: cell-based, Clostridium autoethanogenum
Description: (§2) E. coli Top10 and C. autoethanogenum DSM23693 harbouring the empty vector pMTL85151 were grown initially in the presence of DL-4-chlorophenylanine on plates and in liquid media to ascertain if the counter-selection marker has any effect on growth of the organisms.
(§3) The three independent transformants of C. atoethanogenum DSM23693 harbouring pMTL85151-pheS*, as well as C. autoethanogenum DSM23693 harbouring pMTL85151, were grown in liquid PECT media supplemented with thiamphenicol and grown at 37° C. under CO only conditions. After 24 hours, 100 ul of each of the three independent, as well as the control pMTL85151, were plated into PETC-MES agar supplemented with either thiamphenicol alone, or thiamphenicol and DL-4-chlorophenylalanine and incubated for 48 hours.

[2] = test system: E. coli TOP10 harbouring pMTL85151-pheS*; assay: Testing pheS* in E. coli (plating on LB with chloramphenicol and DL-4-chlorophenylalanine); format: cell-based
Description: To test the ability of the counter selection marker to work in E. coli, the plasmid pMTL85151-pheS* was transformed into TOP10 and grown under chloramphenicol selection only. Once the culture had reached an OD of 0.5, representing an exponential growth phase, 100 ul was plated onto LB plates containing chloramphenicol and DL-4-chlorophenylalanine as well as chloramphenicol alone as a control, in triplicate, […]

[3] = test system: C. autoethanogenum DSM23693 harbouring pMTL85151-pheS*; format: cell-based, Clostridium autoethanogenum; details: summary statement
Description: as §3

[4] = test system: E. coli Top10 harbouring the empty vector pMTL85151; assay: Toxicity testing of DL-4-chlorophenylalanine, E. coli with empty vector; format: cell-based; details: plates and liquid media, 24 hours
Description: as §2

SMILES: Nc1nc(O)c2ncn(COC(CO)CO)c2n1 [Ganciclovir, ganciclovir]
- Sensitivity to prodrug: growth on plate, LZ-pMTL83155-hsv-tk (LZ-pMTL83155-hsv-tk; Ganciclovir 20 nM, CSM Hsv-tk, PETC agar): 0-5 ^
- Counterselection in combination with HSV-Tk (LZ-pMTL83155-hsv-tk; summary statement): effective for counterselection in C. autoethanogenum
- Colonies on ganciclovir plates (LZ-pMTL83155; 20 nM ganciclovir, with or without 15 μg/ml thiamphenicol): observed only with LZ-pMTL83155 transformants
- Sensitivity to prodrug: growth on plate, LZ-pMTL83155 (LZ-pMTL83155; Ganciclovir 20 nM, CSM Hsv-tk): Lawn

SMILES: NC(Cc1ccc(Cl)cc1)C(=O)O (racemic) [DL-4-chlorophenylalanine]
- Sensitivity to prodrug: growth on plate, column LZ-pMTL83155 ([1]; DL-4-Chlorophenlanine 0.20%, CSM PheS, control strain without CSM): Lawn
- Growth on double selection plates (thiamphenicol and DL-4-chlorophenylalanine) ([1]; PETC-MES agar, 48 hours): the same results as the thiamphenicol only plate
- Effect on growth ([1]; plates and liquid media, 48 hours): did not impede growth of either organism in liquid media or on plates
- Growth on plates with chloramphenicol and DL-4-chlorophenylalanine ([2]; 24 hours at 37° C., compared with chloramphenicol alone): a light shading of small colonies
- Growth on plates with chloramphenicol and DL-4-chlorophenylalanine ([2]; after 36 hours): outgrown to the same level as the chloramphenicol alone plates
- Counterselection in combination with PheS* [3]: effective for counterselection in C. autoethanogenum
- Effect on growth [4]: did not impede growth of either organism in liquid media or on plates
